According to ChEMBL document CHEMBL4619806, “Screening of a Custom-Designed Acid Fragment Library Identifies 1-Phenylpyrroles and 1-Phenylpyrrolidines as Inhibitors of Notum Carboxylesterase Activity” (J Med Chem, 2020):
Converted amounts (≈) assume the structure as drawn.

Experiments:
[1] = biological target: T1, Palmitoleoyl-protein carboxylesterase NOTUM (Homo sapiens, UniProt Q6P988, C330S); experiment: Inhibition of human Notum (S81 to T451 residues) Cys330Ser mutant expressed in HEK293S GnTI cells using OPTS as substrate incubated for 40 mins by fluorescence based assay
[2] = biological target: T1, Palmitoleoyl-protein carboxylesterase NOTUM; experiment: Inhibition of human Notum (S81 to T451 residues) Cys330Ser mutant expressed in HEK293S GnTI cells at 100 uM using OPTS as substrate incubated for 40 mins by fluorescence based assay relative to control
[3] = Chromatographic hydrophobicity index, log D of the compound at pH 7.4; type: physicochemical; conditions: buffer
[4] = Aqueous solubility at pH 7.4; type: physicochemical; conditions: buffer
[5] = Intrinsic clearance in mouse liver microsomes at 1 uM measured up to 60 mins in presence of NADPH by LC-MS/MS analysis; type: ADME, Microsome; conditions: read-out: CLH
[6] = Apparent permeability from apical to basolateral side in MDCK2-MDR1 cells at 10 uM measured up to 120 mins by LC-MS/MS analysis; type: ADME, cell-based, Canis lupus familiaris; conditions: dog, MDCK-MDR1
[7] = Apparent permeability from basolateral to apical side in MDCK2-MDR1 cells at 10 uM measured up to 120 mins by LC-MS/MS analysis; type: ADME, cell-based, Canis lupus familiaris; conditions: dog, MDCK-MDR1
[8] = Efflux ratio of apparent permeability in MDCK2-MDR1 cells at 10 uM measured up to 120 mins by LC-MS/MS analysis; type: ADME, cell-based, Canis lupus familiaris; conditions: dog, MDCK-MDR1

T1 sequence (Q6P988 20-496 C330S limits assumed): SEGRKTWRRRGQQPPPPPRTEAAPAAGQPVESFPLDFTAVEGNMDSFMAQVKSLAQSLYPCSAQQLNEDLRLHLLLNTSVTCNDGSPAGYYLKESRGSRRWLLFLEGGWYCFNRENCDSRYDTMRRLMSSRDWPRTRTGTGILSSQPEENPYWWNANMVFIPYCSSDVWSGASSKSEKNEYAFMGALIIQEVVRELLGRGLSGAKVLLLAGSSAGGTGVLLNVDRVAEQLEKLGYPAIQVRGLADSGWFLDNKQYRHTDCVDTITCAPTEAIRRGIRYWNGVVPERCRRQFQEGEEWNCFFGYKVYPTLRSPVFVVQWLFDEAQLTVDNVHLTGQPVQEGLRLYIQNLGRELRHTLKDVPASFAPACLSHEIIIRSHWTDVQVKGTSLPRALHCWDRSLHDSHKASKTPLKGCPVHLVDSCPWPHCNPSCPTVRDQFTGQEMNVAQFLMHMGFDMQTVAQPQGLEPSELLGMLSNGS

IC50 [1] [µM]	Compound	further results
1.5	COc1cccc(-n2c(C)cc(C(=O)O)c2C)c1	–
6.7	Cc1[nH]c(C(F)(F)F)cc1C(=O)O	–
100	Cc1c[nH]cc1C(=O)O	inhibition at 100 µM [2]: 50%
7.9	O=C(O)C1CCN(c2cc(Cl)ccc2Cl)C1 (racemic)	–
1.7	Cc1cc(C(=O)O)c(C)n1-c1cc(Cl)ccc1Cl	–
6.8	O=C(O)C1CCN(c2cccc(C(F)(F)F)c2F)C1 (configuration not stated)	–
2	Cc1cc(C(=O)O)c(C)n1-c1cccc(Cl)c1C#N	–
0.86	Cc1cc(C(=O)O)c(C)n1-c1ccc(Cl)cc1	–
1.2	O=C(O)C1CCN(c2ccc(Cl)c(Cl)c2)C1 (racemic)	–
0.43	Cc1cc(C(=O)O)c(C)n1-c1ccc(Cl)cc1Cl	–
0.27	Cc1cc(C(=O)O)c(C)n1-c1ccc(Cl)c(Cl)c1	–
> 100	Cc1cc(C(=O)O)c(C)n1C	inhibition at 100 µM [2]: 20 to 40%
19	O=C(O)C1CCN(c2ccc(Cl)cc2)C1 (racemic)	–
1.7	Cc1cc(C(=O)O)c(C)n1-c1ccccc1	–
100	Cc1c[nH]c(C)c1C(=O)O	inhibition at 100 µM [2]: 50%
0.26	O=C(C1CCN(c2ccc(Cl)c(C(F)(F)F)c2)C1)N1CC(F)(F)C1 (configuration not stated)	chromatographic logD [3]: 4; solubility [4]: 19 µM (≈ 7.01 µg/mL); microsomal CLint at 1 µM [5]: 21 µL/min/mg; Papp A→B at 2 h, 10 µM [6]: 8 ×10⁻⁶ cm/s; Papp B→A at 2 h, 10 µM [7]: 10 ×10⁻⁶ cm/s; efflux ratio at 2 h, 10 µM [8]: 1.2
4.2	O=c1[nH]nc(C2CCN(c3ccc(Cl)c(C(F)(F)F)c3)C2)o1 (configuration not stated)	chromatographic logD [3]: 3.5; solubility [4]: 69 µM (≈ 23 µg/mL); microsomal CLint at 1 µM [5]: 10 µL/min/mg; Papp A→B at 2 h, 10 µM [6]: 13 ×10⁻⁶ cm/s; Papp B→A at 2 h, 10 µM [7]: 19 ×10⁻⁶ cm/s; efflux ratio at 2 h, 10 µM [8]: 1.5
0.2	Cc1cc(C(=O)O)c(C)n1-c1cccc(C2CC2)c1F	–
2.3	Cc1cc(C(=O)O)c(C)n1-c1ccccc1Cl	–
1.5	Cc1cc(C(=O)O)c(C)n1-c1cccc(C(F)(F)F)c1	–
19	O=C(O)C1CCN(c2ccccc2Cl)C1 (configuration not stated)	–
0.85	Cc1cc(C(=O)O)c(C)n1-c1cc(Cl)cc(Cl)c1	–
15	O=C(O)C1CCN(c2ccc(F)cc2)C1 (racemic)	–
0.64	CCOc1cccc(-n2c(C)cc(C(=O)O)c2C)c1	–
3.1	O=C(C1CCN(c2ccc(Cl)c(C(F)(F)F)c2)C1)N1CC2COCC2C1 (configuration not stated)	–
3.8	Cc1c(C(=O)O)ccn1-c1ccccc1	–

IC50 [1] [µM]	Compound	further results
0.15	Cc1cc(C(=O)O)c(C)n1-c1cccc(C(C)C)c1F	chromatographic logD [3]: 3.1; solubility [4]: 51 µM (≈ 14 µg/mL); microsomal CLint at 1 µM [5]: 52 µL/min/mg; Papp A→B at 2 h, 10 µM [6]: 46 ×10⁻⁶ cm/s; Papp B→A at 2 h, 10 µM [7]: 43 ×10⁻⁶ cm/s; efflux ratio at 2 h, 10 µM [8]: 0.93
> 100	Cc1c(C(=O)O)cc(C(F)(F)F)n1Cc1ccccc1	inhibition at 100 µM [2]: 20 to 40%
0.38	Cc1cc(C(=O)O)c(C)n1-c1cccc(Cl)c1F	–
0.8	COc1c(Cl)cccc1-n1c(C)cc(C(=O)O)c1C	–
49	Cc1cccc(N2CCC(C(=O)O)C2)c1 (racemic)	–
50	O=C(O)C1CCN(c2ccc(C(F)(F)F)cc2)C1 (racemic)	–
0.36	Cc1cc(C(=O)O)c(C)n1-c1cccc(C(C)C)c1	–
> 100	Cc1cc(C(=O)O)c(C)[nH]1	inhibition at 100 µM [2]: < 20%
> 100	O=C(O)c1c[nH]c(C(F)(F)F)c1	inhibition at 100 µM [2]: < 20%
2.5	O=C(O)C1CCN(c2ccc(F)c(C(F)(F)F)c2)C1 (racemic)	–
2.1	Cc1cc(C(=O)O)c(C)n1-c1ccc(Cl)c(C(F)(F)F)c1	–
100	Cc1cc(C(=O)O)c[nH]1	inhibition at 100 µM [2]: 50%
> 100	O=C(O)c1cc[nH]c1	inhibition at 100 µM [2]: < 20%
63	O=C(O)C1CCN(c2cccc(OC(F)(F)F)c2)C1 (racemic)	–
14	O=C(O)C1CCN(c2cccc(Cl)c2)C1 (racemic)	–
0.41	O=C(C1CCN(c2ccc(Cl)c(C(F)(F)F)c2)C1)N1CCCC1 (configuration not stated)	–
1.5	Cc1cc(C(=O)O)c(C)n1-c1ccc(C(F)(F)F)c(Cl)c1	–
0.6	O=C(O)C1CCN(c2ccc(Cl)c(Cl)c2Cl)C1 (racemic)	–
26	O=C(O)C1CCN(c2c(Cl)cccc2Cl)C1 (racemic)	–
0.22	Cc1cc(C(=O)O)c(C)n1-c1cccc(Cl)c1Cl	–
–	O=C(O)[C@H]1CCN(c2ccc(Cl)c(C(F)(F)F)c2)C1	chromatographic logD [3]: 1.5; solubility [4]: > 595 µM; microsomal CLint at 1 µM [5]: 2.5 µL/min/mg; Papp A→B at 2 h, 10 µM [6]: 39 ×10⁻⁶ cm/s; Papp B→A at 2 h, 10 µM [7]: 43 ×10⁻⁶ cm/s
2.3	Cc1cc(C(=O)O)c(C)n1-c1c(Cl)cccc1Cl	–
1.5	Cc1cc(C(=O)O)c(C)n1-c1cccc(F)c1	–
0.46	Cc1cc(C(=O)O)c(C)n1-c1cccc(C(C)(C)C)c1	–
11	O=C(O)C1CCN(c2cccc(C(F)(F)F)c2)C1 (racemic)	–
> 100	Cc1[nH]ccc1C(=O)O	inhibition at 100 µM [2]: < 20%

IC50 [1] [µM]	Compound	further results
8.5	O=C(O)C1CCN(c2ccc(C(F)(F)F)c(Cl)c2)C1 (racemic)	–
11	O=C(O)C1CCN(c2cc(Cl)cc(Cl)c2)C1 (racemic)	–
0.63	Cc1cc(C(=O)O)c(C)n1-c1cccc(C#N)c1F	–
8	O=C(O)C1CCN(c2cccc(Cl)c2Cl)C1 (racemic)	–
2	Cc1ccc(-n2c(C)cc(C(=O)O)c2C)cc1	–
24	FC(F)(F)c1cc(N2CCC(c3nnco3)C2)ccc1Cl (configuration not stated)	–
3.1	Cc1cc(C(=O)O)c(C)n1-c1cccc(C#N)c1	–
3.3	Cc1cc(C(=O)O)c(C)n1-c1ccccc1F	–
0.43	Cc1cc(C(=O)O)c(C)n1-c1cccc(Cl)c1	–
3.1	CN1CCN(C(=O)C2CCN(c3ccc(Cl)c(C(F)(F)F)c3)C2)CC1=O (configuration not stated)	–
10	O=C(O)C1CCN(c2ccc(Cl)cc2Cl)C1 (racemic)	–
1.4	CN1CN(C(=O)C2CCN(c3ccc(Cl)c(C(F)(F)F)c3)C2)CC1=O (configuration not stated)	–
3.5	COCCNC(=O)C1CCN(c2ccc(Cl)c(C(F)(F)F)c2)C1 (configuration not stated)	–
57	CC(C)c1cccc(N2CCC(C(=O)O)C2)c1 (racemic)	–
1	O=C(Nc1ccccc1)C1CCN(c2ccc(Cl)c(C(F)(F)F)c2)C1 (configuration not stated)	–
9.7	O=C(C1CCN(c2ccc(Cl)c(C(F)(F)F)c2)C1)N1CCOCC1 (configuration not stated)	–
1.9	Cc1cc(C(=O)O)c(C)n1-c1ccc(F)cc1	–
42	N#Cc1cccc(N2CCC(C(=O)O)C2)c1 (racemic)	–
1.2	CN(C)C(=O)C1CCN(c2ccc(Cl)c(C(F)(F)F)c2)C1 (configuration not stated)	–
2.2	Cc1ccccc1-n1c(C)cc(C(=O)O)c1C	–
22	Cc1c(C(=O)O)cc(C(F)(F)F)n1-c1ccccc1	–
1.3	CNC(=O)C1CCN(c2ccc(Cl)c(C(F)(F)F)c2)C1 (configuration not stated)	–
0.58	Cc1cc(C(=O)O)c(C)n1-c1cccc(C2CC2)c1	–
1.5	Cc1cccc(-n2c(C)cc(C(=O)O)c2C)c1	–

Compound	IC50 [1] [µM]	further results
O=C(O)C1CCN(c2ccccc2F)C1 (configuration not stated)	11 to 11.3	–
Cc1c(C(=O)O)ccn1Cc1ccccc1	3.1	–
Cc1cc(C(=O)O)c(C)n1Cc1ccccc1	14	–
Cc1cc(C(=O)O)c(C)n1C1CC1	6.3	–
Cc1cc(C(=O)O)c(C)n1CC1CC1	12.7	–
